We go through eight compounds from US20250340563A1, “FUSED PYRIDAZINE DERIVATIVES AS NLRP3 INHIBITORS” (Takeda Pharmaceutical Company Limited, priority 2022, published 2025).

One data set deals with NF-κB pathway. The data set is described as follows: TNF-α assay in IFN-γ-differentiated, LPS-stimulated THP-1 cells (ELISA). Format: cell-based. Particulars: Homo sapiens, 50 ng/mL LPS, 3 hours. The gist of the method: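 THP-1 cells differentiated with 25 ng/mL IFN-γ for 24 h, then preincubated 30 min at 37 °C with compound (1:3.16 serial dilutions) in serum-free medium. Stimulated with 50 ng/mL LPS for 3 h; supernatant assayed by human TNF-α ELISA. IC50 from four-parameter logistic fit of % inhibition.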
Background: In an ELISA, binding on a coated surface is turned into a signal by an enzyme label.

A further data set concerns the target NLRP3 inflammasome (Homo sapiens, UniProt Q96P20). The data set is described as follows: IL-1β assay in IFN-γ-differentiated, LPS-primed, ATP-activated THP-1 cells (ELISA). Format: cell-based. Particulars: 50 ng/mL LPS priming, 2.5 mM ATP activation, 2 hours. Put shortly:
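THP-1 cells differentiated with 25 ng/mL IFN-γ for 24 h, then primed with 50 ng/mL LPS for 24 h in serum-free medium. After 30 min compound preincubation (1:3.16 dilution series), inflammasome activated with 2.5 mM ATP for 2 h at 37 °C. Supernatant IL-1β measured by ELISA; IC50 from logistic fit of % inhibition.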

The next data set has as its target T1, MDR1 (P-gp) (Homo sapiens, UniProt P08183).
T1 construct: expressed in transfected cells; host or cells: Madin-Darby Canine Kidney (MDCK) cells
The data set is described as follows: MDCK-MDR1 assay (apparent permeability and efflux ratio). Format: in vitro ADME. Particulars: dog; for efflux ratio at 60 min, 1 µM: pH 7.4, MDCK-MDR1, P-gp mediated efflux ratio, read-out: MDR1 ER; for Papp A→B at 60 min, 1 µM: MDCK-MDR1 monolayer, apical to basolateral, pH 7.4, 60 minutes. The method, then:
Madine-Darby Canine Kidney (MDCK) cells transfected with Multidrug resistance protein 1 (MDR1) are maintained in accordance with the provider's instructions in Dulbecco's Modified Eagle media (DMEM, Fisher Scientific Cat #10569044). DMEM is supplemented with 10% heat inactivated fetal bovine serum (Gibco Cat #16000-044), Penicillin-Streptomycin (100 units/mL) (Gibco Cat #15140122) and an inducer of P-gp, colchicine (200 nM) (Sigma Cat #C9754). The cells are seeded onto the apical side of HTS-Transwell-96 Plates (0.4 μm pore size, Corning Cat #3381) at a density of 6.25×10^3 cells per well with 75 μL and 250 μL of DMEM media in apical and basolateral wells, respectively, and are incubated at 37° C./5% CO2. Fresh DMEM media is exchanged in the apical and basolateral compartments after 72 hours and cells are allowed to grow into a monolayer for 144 hours before beginning the experimental incubation. Incubations are performed in Hanks' Balanced Salt Solution (HBSS, Fisher Scientific Cat #14025134) at pH 7.4 with 1% Bovine Serum Albumin (Sigma, Cat #A9418) and 10 mM HEPES (Fisher Scientific, Cat #15630080). DMEM media is removed and cells are rinsed with warm (37° C.) HBSS. HBSS with test compound at 1p M substrate concentration (0.1% v/v DMSO) is added to either the apical or basolateral compartment (75 μL or 250 μL, respectively) and blank HBSS buffer is added to the compartment which lacks test compound in singlicate. The cells are incubated for 60 minutes at 37° C./5% CO2. At the end of the incubation period, 50 μL of sample is removed from each receiver compartment and diluted into 150 μL of acetonitrile (Fisher Scientific, Cat #A996SK4)+0.1% formic acid (Sigma, Cat #F0507). The samples are centrifuged at 2000 rcf for 10 minutes at 4° C., after which 100 μL of supernatant is transferred to a new microplate and diluted with 100 μL of HPLC grade water (Fisher Scientific, Cat #W64). Samples are analyzed using a triple quadrupole mass spectrometer API-5500QTrap (ABSciex, Serial No. AU23291006) along with associated autosampler and high performance liquid chromatography pump instrumentation optimized for the detection of test articles through a Kinetix 2.1×50 mm C18 100 Å column (Phenomenex, Cat #00B-4605-AN).
Apparent permeability (Papp) values and efflux ratio are calculated using the following equations: […]

NLRP3 inflammasome, sequence (Q96P20 whole entry): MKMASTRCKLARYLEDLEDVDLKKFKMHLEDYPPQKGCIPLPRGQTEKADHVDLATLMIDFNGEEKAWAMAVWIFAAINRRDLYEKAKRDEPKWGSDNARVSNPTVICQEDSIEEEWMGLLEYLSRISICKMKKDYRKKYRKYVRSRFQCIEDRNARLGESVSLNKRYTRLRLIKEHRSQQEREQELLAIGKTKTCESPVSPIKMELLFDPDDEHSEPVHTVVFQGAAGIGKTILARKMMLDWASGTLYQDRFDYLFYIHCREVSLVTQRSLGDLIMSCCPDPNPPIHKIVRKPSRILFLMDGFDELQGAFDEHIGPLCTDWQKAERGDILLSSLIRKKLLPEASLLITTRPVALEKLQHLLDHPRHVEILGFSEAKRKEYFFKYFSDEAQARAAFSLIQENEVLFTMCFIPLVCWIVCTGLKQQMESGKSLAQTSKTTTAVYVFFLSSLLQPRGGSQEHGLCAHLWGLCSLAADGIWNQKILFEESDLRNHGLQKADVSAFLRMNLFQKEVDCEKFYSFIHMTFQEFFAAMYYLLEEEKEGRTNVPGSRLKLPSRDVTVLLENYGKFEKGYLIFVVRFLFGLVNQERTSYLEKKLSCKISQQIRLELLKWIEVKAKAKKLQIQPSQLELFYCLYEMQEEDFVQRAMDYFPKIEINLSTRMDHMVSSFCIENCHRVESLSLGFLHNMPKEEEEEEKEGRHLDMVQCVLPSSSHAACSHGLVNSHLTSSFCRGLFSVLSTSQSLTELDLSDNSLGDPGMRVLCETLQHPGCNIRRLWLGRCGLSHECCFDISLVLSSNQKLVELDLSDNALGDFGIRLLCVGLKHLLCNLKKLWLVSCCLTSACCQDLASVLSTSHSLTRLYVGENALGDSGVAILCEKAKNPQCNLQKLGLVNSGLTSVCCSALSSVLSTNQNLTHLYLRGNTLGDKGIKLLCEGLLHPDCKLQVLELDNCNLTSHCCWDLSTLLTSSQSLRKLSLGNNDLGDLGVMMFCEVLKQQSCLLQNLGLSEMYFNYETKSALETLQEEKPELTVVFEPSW
T1 sequence (P08183 whole entry, species assumed): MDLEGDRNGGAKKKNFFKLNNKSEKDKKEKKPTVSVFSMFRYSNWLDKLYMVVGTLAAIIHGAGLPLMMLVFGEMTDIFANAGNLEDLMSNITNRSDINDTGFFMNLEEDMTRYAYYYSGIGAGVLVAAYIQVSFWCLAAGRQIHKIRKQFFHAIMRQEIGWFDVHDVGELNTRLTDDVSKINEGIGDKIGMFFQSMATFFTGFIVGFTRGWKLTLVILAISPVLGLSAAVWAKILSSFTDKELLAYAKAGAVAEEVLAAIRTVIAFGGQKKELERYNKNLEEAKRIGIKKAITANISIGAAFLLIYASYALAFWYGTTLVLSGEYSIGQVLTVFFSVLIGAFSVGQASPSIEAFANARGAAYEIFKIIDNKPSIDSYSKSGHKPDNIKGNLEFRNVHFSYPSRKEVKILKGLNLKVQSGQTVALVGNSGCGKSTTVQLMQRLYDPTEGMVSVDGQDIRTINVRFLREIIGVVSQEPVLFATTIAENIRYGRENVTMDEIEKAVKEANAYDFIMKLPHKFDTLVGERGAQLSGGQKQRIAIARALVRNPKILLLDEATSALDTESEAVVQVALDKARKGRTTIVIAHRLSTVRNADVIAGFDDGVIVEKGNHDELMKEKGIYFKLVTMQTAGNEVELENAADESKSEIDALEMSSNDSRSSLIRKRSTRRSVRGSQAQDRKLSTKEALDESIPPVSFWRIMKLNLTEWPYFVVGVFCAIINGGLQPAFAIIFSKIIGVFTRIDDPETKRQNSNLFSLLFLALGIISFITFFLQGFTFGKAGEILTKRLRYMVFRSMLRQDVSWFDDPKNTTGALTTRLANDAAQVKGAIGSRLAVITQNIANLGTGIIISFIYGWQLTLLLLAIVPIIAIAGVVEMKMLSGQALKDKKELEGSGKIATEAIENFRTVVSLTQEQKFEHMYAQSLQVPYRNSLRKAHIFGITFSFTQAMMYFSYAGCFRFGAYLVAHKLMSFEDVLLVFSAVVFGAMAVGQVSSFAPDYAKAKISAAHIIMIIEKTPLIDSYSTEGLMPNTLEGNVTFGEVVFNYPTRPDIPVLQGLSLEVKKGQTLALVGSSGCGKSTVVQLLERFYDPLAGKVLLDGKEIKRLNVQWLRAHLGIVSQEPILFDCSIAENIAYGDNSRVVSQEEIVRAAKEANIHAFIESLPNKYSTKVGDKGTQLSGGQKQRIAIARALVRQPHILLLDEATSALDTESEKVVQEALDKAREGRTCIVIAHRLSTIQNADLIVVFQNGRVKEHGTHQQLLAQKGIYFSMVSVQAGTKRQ

Usually IC50 stands for the concentration that gives 50% inhibition. A low value points to greater potency. As a reminder, the Papp A→B is how fast a substance crosses the layer from the apical side. For the compound `CN1CCC[C@@H](Nc2nnc(-c3ccc(Cl)cc3O)c3c2COCC3)C1` [Example 225, (R)-5-chloro-2-(4-((1-methylpiperidin-3-yl)amino)-7,8-dihydro-5H-pyrano[3,4-d]pyridazin-1-yl)phenol], in the data set with NF-κB pathway, the IC50 was above 30000 nM. Besides, half-maximal inhibition at NLRP3 inflammasome (IC50) required 2 nM. At MDR1 (P-gp), the efflux ratio at 60 min, 1 µM came out at 22 and the Papp A→B at 60 min, 1 µM amounted to 1.5 ×10⁻⁶ cm/s.

As for `CN1C[C@H](F)C[C@@H](Nc2nnc(-c3ccc(C4CC4)cc3O)c3c2COCC3)C1` [Example 238, 5-cyclopropyl-2-(4-(((3R,5R)-5-fluoro-1-methylpiperidin-3-yl)amino)-7,8-dihydro-5H-pyrano[3,4-d]pyridazin-1-yl)phenol], the IC50 with NF-κB pathway was above 30000 nM. The compound also gave an IC50 against NLRP3 inflammasome of 5 nM. Besides, on MDR1 (P-gp), the efflux ratio at 60 min, 1 µM came out at 41 and the Papp A→B at 60 min, 1 µM came to 0.6 ×10⁻⁶ cm/s.

In turn, `CN1CCC[C@@H](Nc2nnc(-c3ccccc3O)c3c2COCC3)C1` [Example 226, (R)-2-(4-((1-methylpiperidin-3-yl)amino)-7,8-dihydro-5H-pyrano[3,4-d]pyridazin-1-yl)phenol] came in with an IC50 with NF-κB pathway above 30000 nM. In addition, at NLRP3 inflammasome, the 50% inhibitory concentration (IC50) is 9 nM. In addition, on MDR1 (P-gp), the efflux ratio at 60 min, 1 µM was 21 and the Papp A→B at 60 min, 1 µM stood at 1.3 ×10⁻⁶ cm/s.

For the compound `COc1ccc(-c2nnc(N[C@@H]3CCCN(C)C3)c3c2CCOC3)c(O)c1` [Example 221, (R)-5-methoxy-2-(4-((1-methylpiperidin-3-yl)amino)-7,8-dihydro-5H-pyrano[3,4-d]pyridazin-1-yl)phenol], the figures for the IC50 in the data set with NF-κB pathway and against NLRP3 inflammasome were above 30000 nM and 3 nM, respectively. Moreover, the efflux ratio at 60 min, 1 µM at MDR1 (P-gp) was 30. For the same compound, at MDR1 (P-gp), the Papp A→B at 60 min, 1 µM was 1 ×10⁻⁶ cm/s.

Regarding `COc1ccc(-c2nnc(N[C@@H]3C[C@@H](F)CN(C)C3)c3c2CCOC3)c(O)c1` [Example 237, 2-(4-(((3R,5R)-5-fluoro-1-methylpiperidin-3-yl)amino)-7,8-dihydro-5H-pyrano[3,4-d]pyridazin-1-yl)-5-methoxyphenol], the IC50 was above 30000 nM with NF-κB pathway and 11 nM on NLRP3 inflammasome. Moreover, the efflux ratio at 60 min, 1 µM at MDR1 (P-gp) turned out to be 10. Besides, the Papp A→B at 60 min, 1 µM on MDR1 (P-gp) was 1.6 ×10⁻⁶ cm/s.

Regarding `CN1C[C@H](F)C[C@@H](Nc2nnc(-c3ccc(OC(F)(F)F)cc3O)c3c2COCC3)C1` [Example 236, 2-(4-(((3R,5R)-5-fluoro-1-methylpiperidin-3-yl)amino)-7,8-dihydro-5H-pyrano[3,4-d]pyridazin-1-yl)-5-(trifluoromethoxy)phenol], the IC50 with NF-κB pathway is above 30000 nM. On NLRP3 inflammasome, this compound showed an IC50 of 7 nM. On MDR1 (P-gp), the efflux ratio at 60 min, 1 µM stood at 10 and the Papp A→B at 60 min, 1 µM amounted to 2.2 ×10⁻⁶ cm/s.

`Cc1ccc(-c2nnc(N[C@@H]3CCCC[C@H]3O)c3c2COCC3)c(O)c1` [Example 230, 2-(1-(((1R,2R)-2-hydroxycyclohexyl)amino)-7,8-dihydro-5H-pyrano[3,4-d]pyridazin-4-yl)-5-methylphenol] came in with an IC50 in the data set with NF-κB pathway above 10000 nM. In addition, the IC50 on NLRP3 inflammasome was 121 nM. In addition, on MDR1 (P-gp), the efflux ratio at 60 min, 1 µM is 7 and the Papp A→B at 60 min, 1 µM turned out to be 1.3 ×10⁻⁶ cm/s.

In the data set with NF-κB pathway, `CN1C[C@H](F)C[C@@H](Nc2nnc(-c3ccc(F)cc3O)c3c2COCC3)C1` [Example 219, 5-fluoro-2-(4-(((3R,5R)-5-fluoro-1-methylpiperidin-3-yl)amino)-7,8-dihydro-5H-pyrano[3,4-d]pyridazin-1-yl)phenol] displayed an IC50 above 30000 nM. Also, half-maximal inhibition at NLRP3 inflammasome (IC50) required 8 nM. On MDR1 (P-gp), the efflux ratio at 60 min, 1 µM came out at 13 and the Papp A→B at 60 min, 1 µM was 4.7 ×10⁻⁶ cm/s.
